Measurements published in patent US8841004B2, “Binaphthyl compound and organic light emitting element using the same” (Canon Kabushiki Kaisha, priority 2007, dated 2014).
Values after ≈ are worked out from the molar mass of the structure shown.

Experiment: Solubility in chlorobenzene heated at 130° C.
Format: physicochemical
Procedure: Solubility of Example Compound A-02 in chlorobenzene heated at 130° C. was examined.
Comparative Compound H-2 (Comparative Example 2), Comparative Compound H-3 (Comparative Example 3) and Comparative Compound H-5 (Comparative Example 5) were respectively synthesized and solubility in chlorobenzene was examined in the same manner as in Example 1-(C). The results are shown in Table 3 along with those of Examples 1 to 3.

Row | Solubility (chlorobenzene, 130° C.) | Structure (SMILES)
1 | 16000 µg/mL (≈ 25 mM) | CC1(C)c2ccccc2-c2ccc(-c3ccc4c(c3)C(C)(C)c3cc(-c5ccc6cc(-c7ccc8ccccc8c7)ccc6c5)ccc3-4)cc21 [Example Compound A-02]
2 | 9400 µg/mL (≈ 11.3 mM) | CC1(C)c2ccccc2-c2ccc(-c3ccc4c(c3)C(C)(C)c3cc(-c5ccc6c(c5)C(C)(C)c5cc(-c7ccc8cc(-c9ccc%10ccccc%10c9)ccc8c7)ccc5-6)ccc3-4)cc21 [Example Compound B-18]

Second part, the compound before the results:

Row | Structure (SMILES) | Solubility (chlorobenzene, 130° C.)
3 | CC1(C)c2ccccc2-c2ccc(-c3ccc4cc(-c5ccc6cc(-c7ccc8c(c7)C(C)(C)c7ccccc7-8)ccc6c5)ccc4c3)cc21 [Comparative Compound H-2] | 3300 µg/mL (≈ 5.17 mM)
4 | CC1(C)c2ccccc2-c2ccc(-c3ccc4cc(-c5ccc6cc(-c7ccc8cc(-c9ccc%10c(c9)C(C)(C)c9ccccc9-%10)ccc8c7)ccc6c5)ccc4c3)cc21 [Comparative Compound H-3] | less than 0.6 g/L
5 | CC1(C)c2cc(-c3ccc4c(c3)C(C)(C)c3cc(-c5ccc6ccccc6c5)ccc3-4)ccc2-c2ccc(-c3ccc4c(c3)C(C)(C)c3cc(-c5ccc6ccccc6c5)ccc3-4)cc21 [Comparative Compound H-5] | 3500 µg/mL (≈ 4.21 mM)
